This experiment addresses T1, glucocorticoid receptor (Homo sapiens, UniProt P04150).
T1 construct: endogenous in cells
T1 sequence (P04150 1-777): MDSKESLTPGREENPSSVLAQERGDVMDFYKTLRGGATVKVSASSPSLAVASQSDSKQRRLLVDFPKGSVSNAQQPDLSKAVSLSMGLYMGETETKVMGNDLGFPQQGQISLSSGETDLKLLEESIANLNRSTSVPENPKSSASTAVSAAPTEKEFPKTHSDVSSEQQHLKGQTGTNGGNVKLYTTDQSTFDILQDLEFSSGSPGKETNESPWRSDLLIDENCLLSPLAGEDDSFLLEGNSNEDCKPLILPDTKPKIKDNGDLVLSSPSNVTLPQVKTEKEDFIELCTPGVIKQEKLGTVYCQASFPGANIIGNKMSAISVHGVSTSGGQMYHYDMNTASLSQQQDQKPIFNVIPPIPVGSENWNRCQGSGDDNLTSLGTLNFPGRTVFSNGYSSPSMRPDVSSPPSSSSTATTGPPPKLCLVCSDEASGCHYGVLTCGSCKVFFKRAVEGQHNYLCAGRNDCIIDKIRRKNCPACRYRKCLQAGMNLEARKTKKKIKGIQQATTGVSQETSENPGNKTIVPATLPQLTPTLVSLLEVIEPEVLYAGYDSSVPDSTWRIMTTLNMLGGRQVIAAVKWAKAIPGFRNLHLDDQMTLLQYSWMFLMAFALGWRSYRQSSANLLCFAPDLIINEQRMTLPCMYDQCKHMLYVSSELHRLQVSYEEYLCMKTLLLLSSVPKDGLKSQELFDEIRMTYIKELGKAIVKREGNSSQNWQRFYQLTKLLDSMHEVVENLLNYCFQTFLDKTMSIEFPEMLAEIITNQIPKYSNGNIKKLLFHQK
As to the kind of experiment: Ligand binding assay (GR BIND). In a few lines: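 Cytosol from freeze–thawed cells in TEGM (pH 7.2, 10 mM molybdate) was incubated overnight at 4 °C with compound and [3H]-dexamethasone trace (added as 6 nM solution), 2% EtOH final. Bound ligand was captured on hydroxylapatite, filtered, washed and scintillation counted. Values were calculated with dexamethasone as reference.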

`C[C@]12Cc3cnn(-c4ccc(F)cc4)c3C=C1CC[C@@H]2CN(CC1CC1)S(=O)(=O)/C=C/c1ccccc1` [Example 13, (E)-N-(cyclopropylmethyl)-N-{[(4αR,5S)-1-(4-fluorophenyl)-4α-methyl-1,4,4α,5,6,7-hexahydrocyclopenta[f]indazol-5-yl]methyl}-2-phenylethylenesulfonamide] yielded a Ki of 0.6 nM. With `CNC(=O)Nc1ccc(S(=O)(=O)N(CC2CC2)C[C@H]2CCC3=Cc4c(cnn4-c4ccc(F)cc4)C[C@@]32C)c(Cl)c1` [Example 14, 2-chloro-N-(cyclopropylmethyl)-N-{[(4αR,5S)-1-(4-fluorophenyl)-4α-methyl-1,4,4α,5,6,7-hexahydrocyclopenta[f]indazol-5-yl]methyl}-4-{[(methylamino)carbonyl]amino}-benzenesulfonamide], affinity was put at a Ki of 1.6 nM.

As to `C[C@]12Cc3cnn(-c4ccc(F)cc4)c3C=C1CC[C@@H]2CN(CC1CC1)S(=O)(=O)c1ccc(F)c(Cl)c1` [Example 15, 3-chloro-N-(cyclopropylmethyl)-4-fluoro-N-{[(4αR,5S)-1-(4-fluorophenyl)-4α-methyl-1,4,4α,5,6,7-hexahydrocyclopenta[f]indazol-5-yl]methyl}benzenesulfonamide], the Ki turned out to be 1.8 nM.

`C[C@]12Cc3cnn(-c4ccc(F)cc4)c3C=C1CC[C@@H]2CN(CCC#N)S(=O)(=O)c1ccccc1F` [Example 16, N-(2-cyanoethyl)-2-fluoro-N-{[(4αR,5S)-1-(4-fluorophenyl)-4α-methyl-1,4,4α,5,6,7-hexahydrocyclopenta[f]indazol-5-yl]methyl}benzenesulfonamide] came in with a Ki of 3 nM. Take `C[C@]12Cc3cnn(-c4ccc(F)cc4)c3C=C1CC[C@@H]2CN(CCO)S(=O)(=O)c1ccccc1F` [Example 17, 2-fluoro-N-{[(4αR,5S)-1-(4-fluorophenyl)-4α-methyl-1,4,4α,5,6,7-hexahydrocyclopenta[f]indazol-5-yl]methyl}-N-(2-hydroxyethyl)benzenesulfonamide]: the Ki came to 2.1 nM. Compound `COC(=O)c1ccccc1S(=O)(=O)N(CC1CC1)C[C@H]1CCC2=Cc3c(cnn3-c3ccc(F)cc3)C[C@@]21C` [Example 18, methyl 2-[((cyclopropylmethyl){[(4αR,5S)-1-(4-fluorophenyl)-4α-methyl-1,4,4α,5,6,7-hexahydrocyclopenta[f]indazol-5 yl]methyl}amino)sulfonyl]benzoate] returned a Ki of 0.8 nM. As to `C[C@]12Cc3cnn(-c4ccc(F)cc4)c3C=C1CC[C@@H]2CN(CCO)S(=O)(=O)c1ccc(F)c(Cl)c1` [Example 19, 3-chloro-4-fluoro-N-{[(4αR,5S)-1-(4-fluorophenyl)-4α-methyl-1,4,4α,5,6,7-hexahydrocyclopenta[f]indazol-5-yl]methyl}-N-(2-hydroxyethyl)benzenesulfonamide], the affinity, expressed as Ki, was 4 nM. Then `C[C@]12Cc3cnn(-c4ccc(F)cc4)c3C=C1CC[C@@H]2CN(CC#N)S(=O)(=O)c1ccc(F)c(Cl)c1` [Example 20, 3-chloro-N-(cyanomethyl)-4-fluoro-N-{[(4αR,5S)-1-(4-fluorophenyl)-4α-methyl-1,4,4α,5,6,7-hexahydrocyclopenta[f]indazol-5-yl]methyl}benzenesulfonamide], with 2.2 nM. `C[C@]12Cc3cnn(-c4ccc(F)cc4)c3C=C1CC[C@@H]2CN(CC1CC1)S(=O)(=O)Cc1ccccc1` [Example 21, N-(cyclopropylmethyl)-N-{[(4αR,5S)-1-(4-fluorophenyl)-4α-methyl-1,4,4α,5,6,7-hexahydrocyclopenta[f]indazol-5-yl]methyl}-1-phenylmethanesulfonamide]: the affinity corresponds to a Ki of 3 nM. The compound `Cc1oncc1S(=O)(=O)N(CC#N)C[C@H]1CCC2=Cc3c(cnn3-c3ccc(F)cc3)C[C@@]21C` [Example 23, N-(cyanomethyl)-N-{[(4αR,5S)-1-(4-fluorophenyl)-4α-methyl-1,4,4α,5,6,7-hexahydrocyclopenta[f]indazol-5-yl]methyl}-5-methylisoxazole-4-sulfonamide] returned a Ki of 4.9 nM. Regarding `C[C@]12Cc3cnn(-c4ccc(F)cc4)c3C=C1CC[C@@H]2CN(CC#N)S(=O)(=O)c1cc(Cl)c(Cl)s1` [Example 24, 4,5-dichloro-N-(cyanomethyl)-N-{[(4αR,5S)-1-(4-fluorophenyl)-4α-methyl-1,4,4α,5,6,7-hexahydrocyclopenta[f]indazol-5-yl]methyl}thiophene-2-sulfonamide], the affinity, expressed as Ki, was 5.3 nM.

For the compound `C[C@]12Cc3cnn(-c4ccc(F)cc4)c3C=C1CC[C@@H]2CN(CC#N)S(=O)(=O)c1ccc(F)c(F)c1` [Example 25, N-(cyanomethyl)-3,4-difluoro-N-{[(4αR,5S)-1-(4-fluorophenyl)-4α-methyl-1,4,4α,5,6,7-hexahydrocyclopenta[f]indazol-5-yl]methyl}benzenesulfonamide], the affinity, expressed as Ki, was 2.5 nM.

`C[C@]12Cc3cnn(-c4ccc(F)cc4)c3C=C1CC[C@@H]2CN(CC#N)S(=O)(=O)c1cccc(Cl)c1Cl` [Example 26, 2,3-dichloro-N-(cyanomethyl)-N-{[(4αR,5S)-1-(4-fluorophenyl)-4α-methyl-1,4,4α,5,6,7-hexahydrocyclopenta[f]indazol-5-yl]methyl}benzenesulfonamide] registered an inhibition constant Ki of 9.7 nM.

`C[C@]12Cc3cnn(-c4ccc(F)cc4)c3C=C1CC[C@@H]2CN(CC#N)S(=O)(=O)c1ccc(Cl)c(C(F)(F)F)c1` [Example 27, 4-chloro-N-(cyanomethyl)-N-{[(4αR,5S)-1-(4-fluorophenyl)-4α-methyl-1,4,4α,5,6,7-hexahydrocyclopenta[f]indazol-5-yl]methyl}-3-(trifluoromethyl)benzenesulfonamide]: the Ki was 8.8 nM. Consider `C[C@]12Cc3cnn(-c4ccc(F)cc4)c3C=C1CC[C@@H]2CN(CC#N)S(=O)(=O)c1ccc(C#N)cc1` [Example 28, 4-cyano-N-(cyanomethyl)-N-{[(4αR,5S)-1-(4-fluorophenyl)-4α-methyl-1,4,4α,5,6,7-hexahydrocyclopenta[f]indazol-5-yl]methyl}benzenesulfonamide], for which the Ki worked out at 2.3 nM.

In the case of `Cc1cc(S(=O)(=O)N(CC#N)C[C@H]2CCC3=Cc4c(cnn4-c4ccc(F)cc4)C[C@@]32C)c(C)cc1Cl` [Example 29, 4-chloro-N-(cyanomethyl)-N-{[(4αR,5S)-1-(4-fluorophenyl)-4α-methyl-1,4,4α,5,6,7-hexahydrocyclopenta[f]indazol-5-yl]methyl}-2,5-dimethylbenzenesulfonamide], the Ki is 8.4 nM. `C[C@]12Cc3cnn(-c4ccc(F)cc4)c3C=C1CC[C@@H]2CN(CC#N)S(=O)(=O)Cc1cccc(C(F)(F)F)c1` [Example 30, N-(cyanomethyl)-N-{[(4αR,5S)-1-(4-fluorophenyl}-4α-methyl-1,4,4α,5,6,7-hexahydrocyclopenta[f]indazol-5-yl]methyl}-1-[3-(trifluoromethyl)phenyl]methanesulfonamide] had a Ki of 7.6 nM. Compound `Cc1ccc(S(=O)(=O)N(CC#N)C[C@H]2CCC3=Cc4c(cnn4-c4ccc(F)cc4)C[C@@]32C)s1` [Example 31, N-(cyanomethyl)-N-{[(4αR,5S)-1-(4-fluorophenyl}-4α-methyl-1,4,4α,5,6,7-hexahydrocyclopenta[f]indazol-5-yl]methyl}-5-methylthiophene-2-sulfonamide] returned a Ki of 6.1 nM.

Consider `Cn1cc(S(=O)(=O)N(CC#N)C[C@H]2CCC3=Cc4c(cnn4-c4ccc(F)cc4)C[C@@]32C)c(C(F)(F)F)n1` [Example 32, N-(cyanomethyl)-N-{[(4αR,5S)-1-(4-fluorophenyl}-4α-methyl-1,4,4α,5,6,7-hexahydrocyclopenta[f]indazol-5-yl]methyl}-1-methyl-3-(trifluoromethyl)-1H-pyrazole-4-sulfonamide], for which the Ki came out at 3.9 nM. Consider `Cc1cc(S(=O)(=O)N(CC#N)C[C@H]2CCC3=Cc4c(cnn4-c4ccc(F)cc4)C[C@@]32C)c(C)o1` [Example 33, (4αR,5S)-5-({(cyanomethyl)[(2,5-dimethyl-3-furyl)sulfonyl]amino}methyl)-1-(4-fluorophenyl)-4α-methyl-1,4,4α,5,6,7-hexahydrocyclopenta[f]indazol-2-ium], for which the Ki was determined as 8.8 nM. `COC(=O)c1sccc1S(=O)(=O)N(CC#N)C[C@H]1CCC2=Cc3c(cnn3-c3ccc(F)cc3)C[C@@]21C` [Example 34, methyl 3-[((cyanomethyl){[(4αR,5S)-1-(4-fluorophenyl)-4α-methyl-1,4,4α,5,6,7-hexahydrocyclopenta[f]indazol-5-yl]methyl}amino)sulfonyl]thiophene-2-carboxylate] yielded a Ki of 1.7 nM. Then `Cn1nc(C(F)(F)F)cc1-c1ccc(S(=O)(=O)N(CC#N)C[C@H]2CCC3=Cc4c(cnn4-c4ccc(F)cc4)C[C@@]32C)s1` [Example 35], with 5.1 nM; and `C[C@]12Cc3cnn(-c4ccc(F)cc4)c3C=C1CC[C@@H]2CN(CC#N)S(=O)(=O)c1cccc(C#N)c1` [Example 36, 3-cyano-N-(cyanomethyl)-N-{[(4αR,5S)-1-(4-fluorophenyl)-4α-methyl-1,4,4α,5,6,7-hexahydrocyclopenta[f]indazol-5-yl]methyl}benzenesulfonamide], with 2.5 nM.

A word on the Ki: it is the dissociation constant of the complex between target and ligand, obtained from inhibition or displacement.
